Measured values as given in patent US20250368633A1, “AZEPINE FUSED RING COMPOUND AS RIPK1 INHIBITOR AND USE THEREOF” (ARTIVILA BIOPHARMA, priority 2022, published 2025).

Tests used:
[1] = target: T1, RIPK1 kinase (Homo sapiens, UniProt Q13546); assay: In vitro RIPK1 kinase activity assay (ADP-Glo), inhibition by compounds at 1 μM; type: biochemical; settings: compound 1 μM; ATP 10 μM; MBP substrate 100 μg/mL; read-out: RIPK1 kinase activity inhibition rate range
T1 construct: purchased Promega VA7593
T1 sequence (Q13546 1-671): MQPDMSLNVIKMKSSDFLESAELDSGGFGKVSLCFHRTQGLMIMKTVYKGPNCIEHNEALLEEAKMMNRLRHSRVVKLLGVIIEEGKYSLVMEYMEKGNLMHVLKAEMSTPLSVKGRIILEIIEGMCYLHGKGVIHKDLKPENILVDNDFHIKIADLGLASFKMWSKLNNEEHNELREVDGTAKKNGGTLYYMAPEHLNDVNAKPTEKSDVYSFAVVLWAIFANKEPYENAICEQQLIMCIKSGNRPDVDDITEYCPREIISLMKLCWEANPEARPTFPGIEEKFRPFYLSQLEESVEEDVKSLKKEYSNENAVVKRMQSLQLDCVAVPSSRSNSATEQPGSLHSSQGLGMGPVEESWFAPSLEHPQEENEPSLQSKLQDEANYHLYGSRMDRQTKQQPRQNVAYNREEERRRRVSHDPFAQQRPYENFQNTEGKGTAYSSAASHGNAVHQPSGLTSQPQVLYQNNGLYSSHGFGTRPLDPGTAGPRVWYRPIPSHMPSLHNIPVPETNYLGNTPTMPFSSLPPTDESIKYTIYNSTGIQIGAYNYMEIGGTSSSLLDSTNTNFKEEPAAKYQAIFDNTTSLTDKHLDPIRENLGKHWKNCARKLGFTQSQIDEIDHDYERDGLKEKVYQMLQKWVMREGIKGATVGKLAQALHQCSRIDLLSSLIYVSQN
Outline: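 Read by ADP-Glo chemiluminescence as percent inhibition: RIPK1 kinase, 15-min room-temperature compound preincubation, then 1-h reaction with MBP (100 μg/mL final) and ATP (10 μM final). Enzyme level was set by titration.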

[2] = test system: U937 cells; assay: Inhibition rate of compound (1 μM) on necroptosis of U937 cells (TSZ-induced, CellTiter-Glo); type: cell-based; settings: TSZ (hTNF-α, SM-164, Z-VAD-FMK) 20 hours
Outline: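 Percent inhibition comes from ATP luminescence (CellTiter-Glo), referenced to wells without TSZ and wells with TSZ alone. The compound was added to U937 cells 15 min ahead of a TNF-α/SM-164/Z-VAD-FMK mix, followed by 20 h culture at 37° C, 5% CO2.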

[3] = test system: U937 cells; assay: EC50 of necroptosis inhibition in U937 cells (TSZ-induced, CellTiter-Glo); type: cell-based; settings: Homo sapiens, U-937; TSZ (hTNF-α, SM-164, Z-VAD-FMK) 20 hours; 10 concentration points; read-out: EC50 intervals of necroptosis inhibition in U937 cells
Outline: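 Luminescent ATP readout (CellTiter-Glo) after 20 h gave viability of TSZ-challenged U937 cells; compounds were added 15 min ahead of TNF-α/SM-164/Z-VAD-FMK. EC50 derived by variable-slope nonlinear regression of inhibition relative to no-TSZ and TSZ-alone controls.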

Compound | inhibition at 1 µM [1] | Inhibition rate range of compounds (1 μM) on U937 cell necroptosis [2] | EC50 [3]
C[C@@H](NC(=O)C(=O)N[C@H]1COc2ccc(C#CCn3ccnc3)cc2N(C)C1=O)c1ccccc1 [Example 134, N^1-((S)-7-(3-(1H-imidazol-1-yl)prop-1-yn-1-yl)-5-methyl-4-oxo-2,3,4,5-tetrahydrobenzo[b][1,4]oxazepin-3-yl)-N^2-((R)-1-phenylethyl)oxalamide] | 50 to 74% | A (A: ≥90%) | < 100 nM
C[C@@H](NC(=O)C(=O)N[C@H]1COc2ccc(C#CC3CCNCC3)cc2N(C)C1=O)c1ccccc1 [Example 135, N^1-((S)-5-methyl-4-oxo-7-(piperidin-4-ylethynyl)-2,3,4,5-tetrahydrobenzo[b][1,4]oxazepin-3-yl)-N^2-((R)-1-phenylethyl)oxalamide] | 25 to 49% | A (A: ≥90%) | < 100 nM
C[C@@H](NC(=O)C(=O)N[C@H]1COc2ccc(C#CC3CN(C)C3)cc2N(C)C1=O)c1ccccc1 [Example 147, N^1-((S)-5-methyl-7-((1-methylazetidin-3-yl)ethynyl)-4-oxo-2,3,4,5-tetrahydrobenzo[b][1,4]oxazepin-3-yl)-N^2-((R)-1-phenylethyl)oxalamide] | ≥ 75% | A (A: ≥90%) | < 100 nM
C[C@@H](NC(=O)C(=O)N[C@H]1COc2ccc(C#CC3CN(N=O)C3)cc2N(C)C1=O)c1ccccc1 [Example 151, N^1-((S)-5-methyl-7-((1-nitrosoazetidin-3-yl)ethynyl)-4-oxo-2,3,4,5-tetrahydrobenzo[b][1,4]oxazepin-3-yl)-N^2-((R)-1-phenylethyl)oxalamide] | 25 to 49% | A (A: ≥90%) | < 100 nM
C[C@@H](Cc1ccccc1)NC(=O)C(=O)N[C@H]1COc2ccc(C#CCCO)cc2N(C)C1=O [Example 152, N^1-((S)-7-(4-hydroxybut-1-yn-1-yl)-5-methyl-4-oxo-2,3,4,5-tetrahydrobenzo[b][1,4]oxazepin-3-yl)-N^2-((S)-1-phenylpropan-2-yl)oxalamide] | 50 to 74% | A (A: ≥90%) | 100 to 500 nM

Second part, led by results:

inhibition at 1 µM [1] | Compound | Inhibition rate range of compounds (1 μM) on U937 cell necroptosis [2] | EC50 [3]
25 to 49% | C[C@@H](NC(=O)C(=O)N[C@H]1COc2ccc(C#CC3CCN(C)CC3)cc2N(C)C1=O)c1ccccc1 [Example 136, N^1-((S)-5-methyl-7-((1-methylpiperidin-4-yl)ethynyl)-4-oxo-2,3,4,5-tetrahydrobenzo[b][1,4]oxazepin-3-yl)-N^2-((R)-1-phenylethyl)oxalamide] | A (A: ≥90%) | < 100 nM
≥ 75% | C[C@@H](NC(=O)C(=O)N[C@H]1COc2ccc(C#CCN3CCNCC3)cc2N(C)C1=O)c1ccccc1 [Example 142, N^1-((S)-5-methyl-4-oxo-7-(3-(piperazin-1-yl)prop-1-yn-1-yl)-2,3,4,5-tetrahydrobenzo[b][1,4]oxazepin-3-yl)-N^2-((R)-1-phenylethyl)oxalamide] | A (A: ≥90%) | < 100 nM
≥ 75% | CC(=O)N1CCN(CC#Cc2ccc3c(c2)N(C)C(=O)[C@@H](NC(=O)C(=O)N[C@H](C)c2ccccc2)CO3)CC1 [Example 143, N^1-((S)-7-(3-(4-acetylpiperazin-1-yl)prop-1-yn-1-yl)-5-methyl-4-oxo-2,3,4,5-tetrahydrobenzo[b][1,4]oxazepin-3-yl)-N^2-((R)-1-phenylethyl)oxalamide] | A (A: ≥90%) | < 100 nM
≥ 75% | C=CC(=O)N1CC(C#Cc2ccc3c(c2)N(C)C(=O)[C@@H](NC(=O)C(=O)N[C@H](C)c2ccccc2)CO3)C1 [Example 149, N^1-((S)-7-((1-acryloylazetidin-3-yl)ethynyl)-5-methyl-4-oxo-2,3,4,5-tetrahydrobenzo[b][1,4]oxazepin-3-yl)-N^2-((R)-1-phenylethyl)oxalamide] | A (A: ≥90%) | < 100 nM
